The results in this text go back to PubChem BioAssay AID248 (DTP/NCI, 2004).

Toxic doses and inconclusive results are not listed.

In the assay the test system is L1210 leukemia ip in BDF1 mice, survival T/C. The assay can be described thus: NCI In Vivo Anticancer Drug Screen. Data for tumor model L1210 Leukemia (intraperitoneal) in B6D2F1 (BDF1) mice. Particulars: endpoint: mean survival time, higher = longer survival. The gist of the method:
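Tumor was transplanted into mice, which were then dosed with test compound or vehicle alone. Survival was recorded for each group, and the treated figure was expressed relative to the control figure.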

Setting [1] is: dose: 100.0 mg/kg/injection, schedule: Q04DX003 (ip), vehicle: saline with Tween-80.
[2] abbreviates: dose: 200.0 mg/kg/injection, schedule: Q04DX003 (ip), vehicle: saline with Tween-80.
[3] abbreviates: dose: 400.0 mg/kg/injection, schedule: Q04DX003 (ip), vehicle: saline with Tween-80.
[4] abbreviates: dose: 100.0 mg/kg/injection, schedule: Q01DX009 (ip), vehicle: saline sonified.
[5] abbreviates: dose: 200.0 mg/kg/injection, schedule: Q01DX009 (ip), vehicle: saline sonified.
[6] abbreviates: dose: 400.0 mg/kg/injection, schedule: Q01DX009 (ip), vehicle: saline sonified.
Where [7] appears, read: dose: 100.0 mg/kg/injection, schedule: Q01DX009 (ip), vehicle: saline with Tween-80.
Where [8] appears, read: dose: 200.0 mg/kg/injection, schedule: Q01DX009 (ip), vehicle: saline with Tween-80.
The mark [9] stands for this setting: dose: 400.0 mg/kg/injection, schedule: Q01DX009 (ip), vehicle: saline with Tween-80.
[10] abbreviates: dose: 25.0 mg/kg/injection, schedule: Q01DX009 (ip), vehicle: saline.
Setting [11] is: dose: 50.0 mg/kg/injection, schedule: Q01DX009 (ip), vehicle: saline.
Setting [12] is: dose: 100.0 mg/kg/injection, schedule: Q04DX003 (ip), vehicle: saline.

For `O=C1c2ccccc2-c2cc(Br)c(NC(=O)C(F)(F)F)cc21`, the T/C was 108 % of control under setting [1], 105 % of control under setting [2] and 100 % of control under setting [3].
For the compound `CCOC(=O)C(CCC(C)=O)C1=NC(C)(C)CC(C)O1` (stereo not drawn), the T/C is, setting by setting: under setting [4], 102 % of control; under setting [5], 109 % of control; under setting [6], 98 % of control.
As for `CC(Oc1nc2c(c(=O)n(C)c(=O)n2C)n1C)C1CCCCC1` (stereo not drawn), the T/C was 95 % of control (dose: 50.0 mg/kg/injection, schedule: Q01DX001 (ip), vehicle: other); 98 % of control (dose: 100.0 mg/kg/injection, schedule: Q01DX001 (ip), vehicle: other); 93 % of control (dose: 200.0 mg/kg/injection, schedule: Q01DX001 (ip), vehicle: other).
`N/C(=N\O)c1cn(C2OC(CO)C(O)C2O)c2nc(Cl)nc(N)c12` (stereo not drawn): the T/C is, setting by setting: (dose: 50.0 mg/kg/injection, schedule: Q01DX001 (ip), vehicle: Klucel (hydroxypropylcellulose) (HPC)) 109 % of control; (dose: 100.0 mg/kg/injection, schedule: Q01DX001 (ip), vehicle: Klucel (hydroxypropylcellulose) (HPC)) 115 % of control.
In the case of `COC(=O)c1ccccc1NC(=O)c1ccco1`, the T/C is, setting by setting: (dose: 100.0 mg/kg/injection, schedule: Q01DX009 (ip), vehicle: Klucel (hydroxypropylcellulose) (HPC)) 97 % of control; (dose: 200.0 mg/kg/injection, schedule: Q01DX009 (ip), vehicle: Klucel (hydroxypropylcellulose) (HPC)) 96 % of control; (dose: 400.0 mg/kg/injection, schedule: Q01DX009 (ip), vehicle: Klucel (hydroxypropylcellulose) (HPC)) 91 % of control.
Take `CN(C)C(=S)[S][Pb]([S]C(=S)N(C)C)([c]1ccccc1)[c]1ccccc1`: the T/C reads like this: (dose: 100.0 mg/kg/injection, schedule: Q01DX001 (ip), vehicle: steriod suspending solution) 114 % of control; (dose: 200.0 mg/kg/injection, schedule: Q01DX001 (ip), vehicle: steriod suspending solution) 111 % of control; (dose: 400.0 mg/kg/injection, schedule: Q01DX001 (ip), vehicle: steriod suspending solution) 109 % of control.
With `Clc1ncnc2c1nnn2/N=C/c1ccccc1`, the T/C is, setting by setting: (dose: 15.0 mg/kg/injection, schedule: Q01DX Z (ip), vehicle: carboxymethylcellulose (CMC)) 95 % of control; (dose: 20.0 mg/kg/injection, schedule: Q01DX Z (ip), vehicle: carboxymethylcellulose (CMC)) 91 % of control.
As to `CCOC(=O)C1CC(C)=C(C)CC1C(=O)O` (stereo not drawn), the T/C by setting is: under setting [7], 87 % of control; under setting [1], 98 % of control; under setting [8], 97 % of control; under setting [2], 90 % of control; under setting [9], 92 % of control; under setting [3], 98 % of control.
In the case of `COc1ccc(CN2CC(C)N(N)C(C)C2)cc1` (stereo not drawn), for the setting “dose: 100.0 mg/kg/injection, schedule: Q01DX005 (ip), vehicle: saline”, the T/C was 98 % of control.
Regarding `COc1cc(N(CCCl)CCCl)c(OC)cc1/C=N\Nc1nnc(C)n1N`, the T/C is, setting by setting: (dose: 2.5 mg/kg/injection, schedule: Q01DX015 (ip), vehicle: carboxymethylcellulose (CMC)) 115 % of control; (dose: 5.0 mg/kg/injection, schedule: Q01DX015 (ip), vehicle: carboxymethylcellulose (CMC)) 121 % of control; (dose: 10.0 mg/kg/injection, schedule: Q01DX015 (ip), vehicle: carboxymethylcellulose (CMC)) 155 % of control; (dose: 30.0 mg/kg/injection, schedule: Q01DX015 (ip), vehicle: carboxymethylcellulose (CMC)) 103 % of control; (dose: 44.0 mg/kg/injection, schedule: Q01DX001 (ip), vehicle: carboxymethylcellulose (CMC)) 103 % of control; (dose: 50.0 mg/kg/injection, schedule: Q01DX001 (ip), vehicle: carboxymethylcellulose (CMC)) 120 % of control. Moreover, the T/C is 115 % of control (dose: 67.0 mg/kg/injection, schedule: Q01DX001 (ip), vehicle: carboxymethylcellulose (CMC)); 161 % of control (dose: 100.0 mg/kg/injection, schedule: Q01DX001 (ip), vehicle: carboxymethylcellulose (CMC)); 97 % of control (dose: 400.0 mg/kg/injection, schedule: Q01DX001 (ip), vehicle: carboxymethylcellulose (CMC)).
As to `O=C(O)C1C=CCC2C(=O)OC(=O)C12` (stereo not drawn), the T/C by setting is: (dose: 75.0 mg/kg/injection, schedule: Q01DX001 (ip), vehicle: saline) 102 % of control; (dose: 150.0 mg/kg/injection, schedule: Q01DX001 (ip), vehicle: saline) 102 % of control; (dose: 300.0 mg/kg/injection, schedule: Q01DX001 (ip), vehicle: saline) 96 % of control.
As to `CC(=O)OCC1OC(n2nnc(CBr)c2CBr)C(OC(C)=O)C(OC(C)=O)C1OC(C)=O` (stereo not drawn), the T/C was 94 % of control (dose: 12.5 mg/kg/injection, schedule: Q01DX005 (ip), vehicle: other); 102 % of control (dose: 25.0 mg/kg/injection, schedule: Q01DX005 (ip), vehicle: other); 97 % of control (dose: 50.0 mg/kg/injection, schedule: Q01DX005 (ip), vehicle: other).
`O=C(Sc1ccccc1)C(Cl)(Cl)Cl`: the T/C under setting [10] was 103 % of control; the T/C under setting [11] was 97 % of control; the T/C (dose: 50.0 mg/kg/injection, schedule: Q04DX003 (ip), vehicle: saline) was 97 % of control; the T/C (dose: 100.0 mg/kg/injection, schedule: Q01DX001 (ip), vehicle: acetone) was 101 % of control; the T/C (dose: 100.0 mg/kg/injection, schedule: Q01DX009 (ip), vehicle: saline) was 95 % of control; the T/C under setting [12] is 94 % of control. The T/C (dose: 200.0 mg/kg/injection, schedule: Q01DX001 (ip), vehicle: acetone) was 95 % of control.
With `Cc1cc(Cl)cc([N+](=O)[O-])c1`, the T/C is 96 % of control under setting [7], 96 % of control under setting [8] and 95 % of control under setting [9].
Turning to `CCOC(=O)C(Br)c1cccc(OC)c1` (stereo not drawn), the T/C reads like this: under setting [4], 107 % of control; (dose: 100.0 mg/kg/injection, schedule: Q04DX003 (ip), vehicle: saline sonified) 117 % of control; (dose: 132.0 mg/kg/injection, schedule: Q04DX003 (ip), vehicle: saline sonified) 104 % of control; under setting [5], 96 % of control; (dose: 200.0 mg/kg/injection, schedule: Q04DX003 (ip), vehicle: saline sonified) 96 % of control; (dose: 300.0 mg/kg/injection, schedule: Q04DX003 (ip), vehicle: saline sonified) 89 % of control. Besides, the T/C under setting [6] is 98 % of control and the T/C (dose: 400.0 mg/kg/injection, schedule: Q04DX003 (ip), vehicle: saline sonified) was 106 % of control.
Turning to `Oc1ccc(C(c2ccc(O)c(Br)c2)c2ccccn2)cc1Br`, the T/C (dose: 100.0 mg/kg/injection, schedule: Q04DX003 (ip), vehicle: Klucel (hydroxypropylcellulose) (HPC)) is 100 % of control; the T/C (dose: 200.0 mg/kg/injection, schedule: Q04DX003 (ip), vehicle: Klucel (hydroxypropylcellulose) (HPC)) is 98 % of control; the T/C (dose: 400.0 mg/kg/injection, schedule: Q04DX003 (ip), vehicle: Klucel (hydroxypropylcellulose) (HPC)) was 96 % of control.
Consider `CCN(CC)CCCNc1cc(Cl)c(Cl)cc1[N+](=O)[O-]`, for which the T/C runs as follows: (dose: 12.0 mg/kg/injection, schedule: Q01DX009 (ip), vehicle: saline) 104 % of control; under setting [10], 95 % of control; under setting [11], 91 % of control; under setting [12], 95 % of control; (dose: 200.0 mg/kg/injection, schedule: Q04DX003 (ip), vehicle: saline) 90 % of control; (dose: 400.0 mg/kg/injection, schedule: Q04DX003 (ip), vehicle: saline) 96 % of control.
